Results as given in patent US11014933B2 (priority 2018, dated 2021).
Counter-ions that a name gives are not always drawn. Like-named read-outs stand apart in the source and are kept apart here.

Key:
KOR [1] = target: T1, KOR (Homo sapiens, UniProt P41145); experiment: biochemical; assay type: binding
T1 construct: expressed in transfected cells; host or cells: CHO

MOR [2] = target: T2, MOR (Mus musculus, UniProt P42866); experiment: Competition radioligand binding, MOR ([3H]naloxone); parameters: expressed in transfected cells; host or cells: CHO; conditions: CHO cell membranes
MOR [3] = target: T2, MOR; conditions: for EC50: read-out: MOR 35S-GTP[γS] Binding EC50; for MOR 35S-GTP[γS] Binding % Emax of DAMGO: relative to 3 μM DAMGO
DOR [4] = target: T3, DOR (Homo sapiens, UniProt P41143); experiment: biochemical; assay type: binding; parameters: expressed in transfected cells; host or cells: CHO
MOR [5] = target: T2, MOR; experiment: biochemical
Swiss Webster mice = experiment: Tail immersion assay (agonism, and antagonism of morphine); assay type: in vivo, mouse; conditions: for % MPE of morphine (10 mg/kg) in the presence of test compound (antagonism): test compound 10 mg/kg s.c., 5 min before morphine; for AD50 (antagonism of morphine antinociception): 95% confidence level in brackets
morphine-pelleted mice = experiment: Withdrawal study in morphine-pelleted mice
MOR [6] = target: T2, MOR; conditions: 24 h pretreatment (DAMGO, morphine 5 μM; nalbuphine, naltrexone 1 μM); previously published; cited from earlier work
MOR [7] = target: T2, MOR; experiment: Desensitization study: DAMGO-induced [35S]GTPγS binding after ligand pretreatment of mMOR-CHO cells; assay type: cell-based; parameters: expressed in transfected cells; host or cells: CHO
MOR [8] = target: T2, MOR; parameters: expressed in transfected cells; host or cells: CHO; conditions: read-out: Ki MOR; [3H]naloxone; values from reference 44a/57a; cited from earlier work
DOR [9] = target: T3, DOR; conditions: values from reference 44a/57a; cited from earlier work
MOR [10] = target: T2, MOR; conditions: values from reference 44a/57a, cited from earlier work
KOR [11] = target: T1, KOR; conditions: values from reference 44a/57a; cited from earlier work
Caco-2 monolayers [12] = conditions: related study, cited from earlier work
C57BL/6J mice = experiment: Warm-water tail-withdrawal test with cumulative morphine dosing; assay type: in vivo, mouse
mouse μ opioid receptor = mouse μ opioid receptor (Mus musculus, UniProt P42866); experiment: Calcium mobilization assay in mMOR-CHO cells; assay type: cell-based
Caco-2 monolayers [13] = experiment: Caco-2 bidirectional transport assay
P-gp = experiment: Caco-2 bidirectional transport assay; conditions: human
rat MOR = target: T4, rat MOR (Rattus norvegicus, UniProt P33535); assay type: cell-based
T4 construct: expressed in transfected cells; host or cells: Neuro2A murine neuroblastoma cells (clones H38 and H16)

[14] = read-out: MOR 35S-GTP[γS] Binding % Emax of DAMGO, relative to 3 μM DAMGO

T3 sequence (P41143 whole entry): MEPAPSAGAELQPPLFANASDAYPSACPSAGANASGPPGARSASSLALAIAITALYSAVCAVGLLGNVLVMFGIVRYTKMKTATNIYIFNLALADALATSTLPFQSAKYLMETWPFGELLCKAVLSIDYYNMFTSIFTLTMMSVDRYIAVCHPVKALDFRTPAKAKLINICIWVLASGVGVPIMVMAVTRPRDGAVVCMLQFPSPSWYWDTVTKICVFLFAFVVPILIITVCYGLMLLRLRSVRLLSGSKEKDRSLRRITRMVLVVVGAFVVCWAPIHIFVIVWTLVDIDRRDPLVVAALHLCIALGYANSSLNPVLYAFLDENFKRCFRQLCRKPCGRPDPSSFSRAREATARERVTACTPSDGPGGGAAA
T2 sequence (P42866 whole entry): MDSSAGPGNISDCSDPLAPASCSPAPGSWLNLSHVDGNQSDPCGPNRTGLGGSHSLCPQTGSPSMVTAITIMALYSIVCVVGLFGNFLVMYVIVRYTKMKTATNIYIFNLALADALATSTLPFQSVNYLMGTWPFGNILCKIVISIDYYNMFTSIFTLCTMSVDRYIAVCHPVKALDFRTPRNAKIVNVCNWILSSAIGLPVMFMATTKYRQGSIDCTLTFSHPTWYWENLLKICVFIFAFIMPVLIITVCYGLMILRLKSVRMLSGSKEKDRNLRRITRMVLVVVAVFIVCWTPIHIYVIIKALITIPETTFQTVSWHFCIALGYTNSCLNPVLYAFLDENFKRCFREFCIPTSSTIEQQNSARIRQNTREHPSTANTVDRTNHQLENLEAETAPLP
T1 sequence (P41145 whole entry): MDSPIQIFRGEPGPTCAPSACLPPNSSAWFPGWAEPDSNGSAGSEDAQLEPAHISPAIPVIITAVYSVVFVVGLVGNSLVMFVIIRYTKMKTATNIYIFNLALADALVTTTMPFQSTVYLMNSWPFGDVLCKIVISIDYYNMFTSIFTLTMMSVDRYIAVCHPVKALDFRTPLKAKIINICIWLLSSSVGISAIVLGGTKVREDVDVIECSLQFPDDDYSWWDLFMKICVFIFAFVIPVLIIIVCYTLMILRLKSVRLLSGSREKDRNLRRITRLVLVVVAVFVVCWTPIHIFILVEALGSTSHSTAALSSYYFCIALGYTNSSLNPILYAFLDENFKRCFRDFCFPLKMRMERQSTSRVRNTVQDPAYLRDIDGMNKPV
mouse μ opioid receptor, sequence (P42866 whole entry): as the sequence (P42866 whole entry) above
T4 sequence (P33535 whole entry): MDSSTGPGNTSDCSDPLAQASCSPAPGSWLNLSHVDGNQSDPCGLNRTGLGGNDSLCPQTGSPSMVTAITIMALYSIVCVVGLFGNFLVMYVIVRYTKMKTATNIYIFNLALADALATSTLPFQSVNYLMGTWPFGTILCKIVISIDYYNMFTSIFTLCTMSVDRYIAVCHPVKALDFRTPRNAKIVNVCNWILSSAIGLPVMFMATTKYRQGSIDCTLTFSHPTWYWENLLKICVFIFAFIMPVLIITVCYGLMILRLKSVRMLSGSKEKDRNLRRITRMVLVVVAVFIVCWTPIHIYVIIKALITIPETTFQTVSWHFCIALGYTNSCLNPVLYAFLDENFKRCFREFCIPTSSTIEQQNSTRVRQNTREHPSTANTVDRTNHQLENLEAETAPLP

For “17-Cyclopropylmetyl-3,14β-dihydroxy-4,5α-epoxy-6β-[(3′-carboxyl-4′-pyridyl) acetamido]morphinan [Compound 5]”, the “Selectivity κ/μ” value (KOR [1]) was 3.2, the Ki (KOR [1]; read-out: Ki KOR) was 2.43 ± 0.19 nM and the Ki (MOR [2]) was 0.76 ± 0.08 nM. For the same compound, the EC50 (MOR [3]; MOR-CHO membranes) was 1.83 ± 0.18 nM, the “MOR 35S-GTP[γS] Binding % Emax of DAMGO” value (MOR [3]) was 29.27 ± 1.42% and the “Selectivity δ/μ” value (DOR [4]) was 73.2. For the same compound, the Ki (DOR [4]; read-out: Ki DOR) was 55.6 ± 6.02 nM.

With `Cc1cc(C(=O)N[C@@H]2CCC3(O)C4Cc5ccc(O)c6c5[C@@]3(CCN4CC3CC3)[C@H]2O6)ccn1` (some centres unmarked) (as salt: hydrochloride) the melting point was 248 °C (dec.).

For `N#Cc1cnccc1C(=O)N[C@@H]1CC[C@@]2(O)[C@H]3Cc4ccc(O)c5c4[C@@]2(CCN3CC2CC2)[C@H]1O5` [Compound 2], the Ki (KOR [1]) was 2.74 ± 0.47 nM, the Ki (MOR [2]) was 0.87 ± 0.09 nM and the Emax (MOR [5]; [14]) was 26.1 ± 0.74%. The EC50 (MOR [3]; MOR-CHO membranes) was 1.28 ± 0.2 nM, the Ki (DOR [4]) was 46.3 ± 7.86 nM and the “% MPE of morphine (10 mg/kg) in the presence of test compound (antagonism)” value (“% MPE of morphine (10 mg/kg)” below) (Swiss Webster mice; listed as 2 (NYP)) was “antagonized morphine's antinociception effect significantly”. The “% MPE of morphine (10 mg/kg)” value (Swiss Webster mice; listed as NYP) was 7.8±5.4% and the “Wet dog shakes and jumps versus naloxone 1 mg/kg” value (morphine-pelleted mice; 1 mg/kg s.c.) was “significantly fewer wet dog shakes and jumps”.

With `CC(C)Cc1cnccc1C(=O)N[C@@H]1CC[C@@]2(O)[C@H]3Cc4ccc(O)c5c4[C@@]2(CCN3CC2CC2)[C@H]1O5` [Compound 8] the Ki (KOR [1]) was 75.6 ± 3.87 nM, the Ki (MOR [2]) was 7.2 ± 0.81 nM and the “Ki MOR” value (MOR [2]) was “nanomolar binding affinity”. The Emax (MOR [5]; [14]) was 27.3 ± 0.25%, the “MOR 35S-GTP[γS] Binding EC50” value (MOR [3]; MOR-CHO membranes) was “lowest potency” and the EC50 (MOR [3]; MOR-CHO membranes) was 19.7 ± 2.37 nM. For the same compound, the Ki (DOR [4]) was 149 ± 16 nM.

For `C=CCN1CC[C@]23c4c5ccc(O)c4O[C@H]2C(=O)CC[C@@]3(O)[C@H]1C5` [naloxone, reference compound], the “AD50 (antagonism of morphine antinociception)” value (Swiss Webster mice) was 0.05 mg/kg.

With `O=C(N[C@@H]1CC[C@@]2(O)[C@H]3Cc4ccc(O)c5c4[C@@]2(CCN3CC2CC2)[C@H]1O5)c1ccncc1C1CCCCC1` [Compound 10] the Ki (KOR [1]) was 3.32 ± 0.54 nM, the Ki (MOR [2]) was 0.78 ± 0.09 nM and the Emax (MOR [5]; [14]) was 51.6 ± 3.73%. The EC50 (MOR [3]; MOR-CHO membranes) was 2.46 ± 0.3 nM and the Ki (DOR [4]) was 11.2 ± 1.91 nM.

For `C[C@@H](NC(=O)[C@@H](N)Cc1ccc(O)cc1)C(=O)NCC(=O)N(C)[C@@H](Cc1ccccc1)C(=O)NCCO` [DAMGO, reference compound], the “Emax of DAMGO-stimulated [35S]GTPγS binding after pretreatment (net)” value (MOR [6]) is given as 121.62 ± 13.78 fmol/mg and the “Increase of DAMGO EC50 compared with vehicle treated group” value (MOR [7]; pretreated mMOR-CHO cells) is given as about 4 fold.

Work on `O=C(N[C@@H]1CCC2(O)C3Cc4ccc(O)c5c4[C@@]2(CCN3CC2CC2)[C@H]1O5)c1ccnc(Br)c1` (some centres unmarked) (as salt: hydrochloride) yielded a melting point of over 250 °C.

For `O=C(Cc1ccncc1C(F)(F)F)N[C@@H]1CC[C@@]2(O)[C@H]3Cc4ccc(O)c5c4[C@@]2(CCN3CC2CC2)[C@H]1O5` [Compound 4, 17-Cyclopropylmetyl-3,14β-dihydroxy-4,5α-epoxy-6β-[(3′-trifluromethyl-4′-pyridyl)acetamido]morphinan], the “Selectivity κ/μ” value (KOR [1]) was 29.1, the Ki (KOR [1]; read-out: Ki KOR) was 12.5 ± 0.89 nM and the Ki (MOR [2]) was 0.43 ± 0.01 nM. The EC50 (MOR [3]; MOR-CHO membranes) was 1.38 ± 0.2 nM, the “MOR 35S-GTP[γS] Binding % Emax of DAMGO” value (MOR [3]) was 31.88 ± 3.39% and the “Selectivity δ/μ” value (DOR [4]) was 143.7. For the same compound, the Ki (DOR [4]; read-out: Ki DOR) was 61.8 ± 5 nM.

For `COc1cc(C(=O)N[C@@H]2CCC3(O)C4Cc5ccc(O)c6c5[C@@]3(CCN4CC3CC3)[C@H]2O6)ccn1` (some centres unmarked) (as salt: hydrochloride), the melting point was 244 to 248 °C (dec.).

For `Cc1cnccc1C(=O)N[C@@H]1CC[C@@]2(O)[C@H]3Cc4ccc(O)c5c4[C@@]2(CCN3CC2CC2)[C@H]1O5` [NMP, N-((4R,4aS,7R,7aR,12bS)-3-(cyclopropylmethyl)-4a,9-dihydroxy-2,3,4,4a,5,6,7,7a-octahydro-1H-4,12-methanobenzofuro[3,2-e]isoquinolin-7-yl)-3-methylisonicotinamide], the Ki (MOR [8]) is given as 0.58 ± 0.25 nM, the “Selectivity δ/μ” value (DOR [9]) is given as 470 and the EC50 (MOR [10]; read-out: MOR 35S-GTP[γS] Binding EC50) is given as 1.52 ± 0.26 nM. For the same compound, the “MOR 35S-GTP[γS] Binding % Emax of DAMGO” value (MOR [10]) was 30.63 ± 0.55% and the “Selectivity κ/μ” value (KOR [11]) was 166.

For `O=C(N[C@@H]1CCC2(O)C3Cc4ccc(O)c5c4[C@@]2(CCN3CC2CC2)[C@H]1O5)c1ccnc(Cl)c1` (some centres unmarked) (as salt: hydrochloride), the melting point was over 250 °C.

`O=C(N[C@@H]1CC[C@@]2(O)[C@H]3Cc4ccc(O)c5c4[C@@]2(CCN3CC2CC2)[C@H]1O5)c1ccncc1-c1ccccc1` [Compound 12] gave a Ki (KOR [1]) of 3.42 ± 0.38 nM, a Ki (MOR [2]) of 0.63 ± 0.05 nM and an Emax (MOR [5]; [14]) of 44.4 ± 3.12%. The EC50 (MOR [3]; MOR-CHO membranes) was 1.46 ± 0.18 nM and the Ki (DOR [4]) was 44.8 ± 3.7 nM.

In the case of `C[C@H]1O[C@@H](O[C@H]2[C@@H](O)C[C@H](O[C@H]3[C@@H](O)C[C@H](O[C@H]4CC[C@@]5(C)[C@H](CC[C@@H]6[C@@H]5C[C@@H](O)[C@]5(C)[C@@H](C7=CC(=O)OC7)CC[C@]65O)C4)O[C@@H]3C)O[C@@H]2C)C[C@H](O)[C@@H]1O` [digoxin], the PDR (Caco-2 monolayers [12]; after elacridar was added) is listed as 1.2 and the PDR (Caco-2 monolayers [12]; without elacridar) is listed as 5.1.

With `O=C(N[C@@H]1CC[C@@]2(O)[C@H]3Cc4ccc(O)c5c4[C@@]2(CCN3CC2CC2)[C@H]1O5)c1ccncc1F` [Compound 1] the “Antinociception (% MPE) of morphine in NFP group relative to vehicle-treated group, Day 1” value (C57BL/6J mice; NFP 0.3 mg/kg s.c. pretreatment, 10 mg/kg cumulative morphine, p=0.0013) was “significantly less antinociception”, the “Antinociception (% MPE) of morphine in NFP group relative to Vehicle Group, Day 7” value (C57BL/6J mice; after five days of 10 mg/kg morphine + 0.3 mg/kg NFP, 32 mg/kg cumulative morphine, p=0.0138) was “significantly less antinociception” and the Ki (KOR [1]) was 4.8 ± 0.26 nM. The IC50 (mouse μ opioid receptor) was 76.1 ± 2.5 nM, the “EC50, Ca2+ signal (agonist mode)” value (mouse μ opioid receptor; mMOR-CHO cells transfected with Gαqi5, up to 3 μM) was “did not induce any apparent Ca^2+ signal” and the Ki (MOR [2]) was 0.36 ± 0.02 nM. For the same compound, the P-gp substrate (Caco-2 monolayers [13]; Caco-2, with or without elacridar) was “may be a P-gp substrate”, the “Papp, B-A (efflux) compared with Papp, A-B (absorption)” value (Caco-2 monolayers [13]; NFP 20 μM, 37° C., 2 h) was “much higher” and the efflux ratio at 2 h, 20 μM (P-gp; Caco-2, pH 7.4) was 7 ± 0.5. The efflux ratio at 2 h, 20 μM (P-gp; Caco-2, pH 7.4, with elacridar 1 μM) was 1.3 ± 0.3, the Emax (MOR [5]; read-out: Emax, stimulation of [35S]GTPγS binding (normalized to DAMGO), mMOR-CHO membranes, ligand alone, concentration-effect curve) was 34.9 ± 1.5% and the Emax (MOR [5]; [14]) was 35 ± 3.07%. For the same compound, the Emax (MOR [5]; read-out: Maximal inhibition (minimum) as % of maximal stimulation produced by DAMGO, in the presence of 0.3 μM DAMGO, mMOR-CHO membranes) was 37.7 ± 1.5%, the “Relative efficacy versus naltrexone” value (MOR [3]; mMOR-CHO membranes) was about 3 fold and the EC50 (MOR [3]; MOR-CHO membranes) was 1.2 ± 0.19 nM. For the same compound, the “Emax of DAMGO-stimulated [35S]GTPγS binding after pretreatment (net)” value (MOR [7]; NFP 1 μM, 24 h pretreatment of mMOR-CHO cells) was 156.20 ± 13.83 fmol/mg, the “Internalization of the MOR” value (rat MOR) was “did not” and the Ki (DOR [4]) was 157 ± 7.81 nM. For the same compound, the “AD50 (antagonism of morphine antinociception)” value (Swiss Webster mice) was 2.82 (1.34-5.94) mg/kg, the “% MPE of morphine (10 mg/kg)” value (Swiss Webster mice; listed as 1 (NFP)) was “antagonized morphine's antinociception effect significantly” and the “% MPE of morphine (10 mg/kg)” value (Swiss Webster mice; listed as NFP) was 6.2±2.4%. The “Wet dog shakes, jumps and paw tremors versus naloxone 1 mg/kg” value (morphine-pelleted mice; 10 mg/kg s.c., 20 min) was “significantly fewer wet dog shakes, jumps, and paw tremors”, the “Jumps versus naloxone 1 mg/kg” value (morphine-pelleted mice; 50 mg/kg s.c.) was “significantly fewer jumps” and the “Wet dog shakes and paw tremors versus naloxone 1 mg/kg” value (morphine-pelleted mice; 50 and 100 mg/kg s.c.) was “not significantly different from those of naloxone”.
